From ChEMBL document CHEMBL5360576, “New and promising type of leukotriene B4 (LTB4) antagonists based on the 1,4-benzodioxine structure” (Eur J Med Chem, 2023)

Columns and labels:
[1] = molecular target: T1, Leukotriene B4 receptor (Homo sapiens, UniProt Q9NPC1+Q15722); experiment: Antagonist activity against LTB4 receptor in human U-937 cells at 0.0000001 M incubated for 40 mins by liquid scintillation counting method; assay type: cell-based; settings: dose 100 nM
[2] = molecular target: T1, Leukotriene B4 receptor; experiment: Antagonist activity against LTB4 receptor in human U-937 cells at 0.00001 M incubated for 40 mins by liquid scintillation counting method; assay type: cell-based; settings: dose 10 µM
[3] = molecular target: T1, Leukotriene B4 receptor; experiment: Antagonist activity against LTB4 receptor in human U-937 cells incubated for 40 mins by liquid scintillation counting method; assay type: cell-based
[4] = molecular target: T1, Leukotriene B4 receptor; experiment: Antagonist activity against LTB4 receptor (unknown origin) assessed as inhibition constant; assay type: protein assay
[5] = system: Rattus norvegicus; experiment: Antinflammatory activity against carrageenan induced pedal edema rat model assessed as reduction in edema at 10 mg/kg,po administration and measured after 1 hr relative to control; assay type: functional; set-up: scale not given: the % may be the effect or the level left
[6] = system: Rattus norvegicus; experiment: Antinflammatory activity against carrageenan induced pedal edema rat model assessed as reduction in edema at 10 mg/kg,po administration and measured after 4 hrs relative to control; assay type: functional; set-up: scale not given: the % may be the effect or the level left
[7] = system: Rattus norvegicus; experiment: Antinflammatory activity against carrageenan induced pedal edema rat model assessed as inflammation at 10 mg/kg,po administration and measured after 4 hrs (reference value: 58.75 +/- 3.5 %); assay type: functional
[8] = system: Rattus norvegicus; experiment: Antinflammatory activity against carrageenan induced pedal edema rat model assessed as average pedal volume at 10 mg/kg,po administration and measured after 4 hrs (reference value: 2.41 +/- 0.05 mL); assay type: functional
[9] = system: Rattus norvegicus; experiment: Antinflammatory activity against carrageenan induced pedal edema rat model assessed as inflammation at 10 mg/kg,po administration and measured after 2 hrs (reference value: 45.39 +/- 6.82 %); assay type: functional
[10] = system: Rattus norvegicus; experiment: Antinflammatory activity against carrageenan induced pedal edema rat model assessed as average pedal volume at 10 mg/kg,po administration and measured after 1 hr (reference value: 1.82 +/- 0.04 mL); assay type: functional
[11] = system: Rattus norvegicus; experiment: Antinflammatory activity against carrageenan induced pedal edema rat model assessed as inflammation at 10 mg/kg,po administration and measured after 1 hr (reference value: 20.17 +/- 2.8 %); assay type: functional
[12] = system: Rattus norvegicus; experiment: Antinflammatory activity against carrageenan induced pedal edema rat model assessed as reduction in edema at 10 mg/kg,po administration and measured after 2 hrs relative to control; assay type: functional; set-up: scale not given: the % may be the effect or the level left
[13] = system: Rattus norvegicus; experiment: Antinflammatory activity against carrageenan induced pedal edema rat model assessed as average pedal volume at 10 mg/kg,po administration and measured after 2 hrs (reference value: 2.2 +/- 0.1 mL); assay type: functional
[14] = system: Rattus norvegicus; experiment: Antinflammatory activity against carrageenan induced pedal edema rat model assessed as reduction in edema at 30 mg/kg,po administration and measured after 4 hrs relative to control; assay type: functional; set-up: scale not given: the % may be the effect or the level left
[15] = system: Rattus norvegicus; experiment: Antinflammatory activity against carrageenan induced pedal edema rat model assessed as average pedal volume at 30 mg/kg,po administration and measured after 2 hrs (reference value: 2.2 +/- 0.1 mL); assay type: functional
[16] = system: Rattus norvegicus; experiment: Antinflammatory activity against carrageenan induced pedal edema rat model assessed as reduction in edema at 30 mg/kg,po administration and measured after 1 hr relative to control; assay type: functional; set-up: scale not given: the % may be the effect or the level left
[17] = system: Rattus norvegicus; experiment: Antinflammatory activity against carrageenan induced pedal edema rat model assessed as inflammation at 30 mg/kg,po administration and measured after 4 hrs (reference value: 58.75 +/- 3.5 %); assay type: functional
[18] = system: Rattus norvegicus; experiment: Antinflammatory activity against carrageenan induced pedal edema rat model assessed as reduction in edema at 30 mg/kg,po administration and measured after 2 hrs relative to control; assay type: functional; set-up: scale not given: the % may be the effect or the level left
[19] = system: Rattus norvegicus; experiment: Antinflammatory activity against carrageenan induced pedal edema rat model assessed as inflammation at 30 mg/kg,po administration and measured after 1 hr (reference value: 20.17 +/- 2.8 %); assay type: functional
[20] = system: Rattus norvegicus; experiment: Antinflammatory activity against carrageenan induced pedal edema rat model assessed as inflammation at 30 mg/kg,po administration and measured after 2 hrs (reference value: 45.39 +/- 6.82 %); assay type: functional
[21] = system: Rattus norvegicus; experiment: Antinflammatory activity against carrageenan induced pedal edema rat model assessed as average pedal volume at 30 mg/kg,po administration and measured after 4 hrs (reference value: 2.41 +/- 0.05 mL); assay type: functional
[22] = system: Rattus norvegicus; experiment: Antinflammatory activity against carrageenan induced pedal edema rat model assessed as average pedal volume at 30 mg/kg,po administration and measured after 1 hr (reference value: 1.82 +/- 0.04 mL); assay type: functional

T1 sequence (Q15722 whole entry, looked up): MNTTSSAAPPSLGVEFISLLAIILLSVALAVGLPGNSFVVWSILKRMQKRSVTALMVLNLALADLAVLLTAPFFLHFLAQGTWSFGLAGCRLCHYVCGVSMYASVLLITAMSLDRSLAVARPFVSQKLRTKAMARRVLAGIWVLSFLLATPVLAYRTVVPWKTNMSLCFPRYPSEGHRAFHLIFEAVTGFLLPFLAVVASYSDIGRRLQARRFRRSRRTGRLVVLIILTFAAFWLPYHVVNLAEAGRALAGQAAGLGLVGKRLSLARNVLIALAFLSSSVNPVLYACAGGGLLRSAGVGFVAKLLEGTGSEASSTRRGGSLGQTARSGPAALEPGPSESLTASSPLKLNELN
T1 sequence (Q9NPC1 whole entry, looked up): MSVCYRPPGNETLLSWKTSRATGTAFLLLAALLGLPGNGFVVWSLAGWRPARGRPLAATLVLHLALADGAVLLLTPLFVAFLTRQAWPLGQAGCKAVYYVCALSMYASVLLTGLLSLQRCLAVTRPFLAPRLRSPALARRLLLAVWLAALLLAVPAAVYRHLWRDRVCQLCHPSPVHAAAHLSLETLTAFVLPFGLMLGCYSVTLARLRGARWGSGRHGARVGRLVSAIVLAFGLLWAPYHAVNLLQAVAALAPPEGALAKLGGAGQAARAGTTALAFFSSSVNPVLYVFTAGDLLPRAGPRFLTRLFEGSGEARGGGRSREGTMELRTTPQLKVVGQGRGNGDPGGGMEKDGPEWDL

| SMILES | inhibition [1] | inhibition ([2]; filed as antagonist) | IC50 [3] | also measured |
| --- | --- | --- | --- | --- |
| CC(OCc1ccccc1)C1=C(C(=O)O)Oc2cc(OCc3ccccc3)ccc2O1 (configuration not stated) | 0% | 82% |  |  |
| O=C(O)C1=C(C(=O)N2CCC(c3ccccc3)CC2)Oc2ccc(OCc3ccccc3)cc2O1 |  |  |  | inhibition [2]: 29% |
| CN(CCc1ccccc1)C(=O)C1=C(C(=O)O)Oc2cccc(OCc3ccccc3)c2O1 | 6% |  |  | inhibition [2]: 39% |
| CCN(CC)C(=O)C1=C(C(C)OCc2ccccc2)Oc2cc(OCc3ccccc3)ccc2O1 (configuration not stated) | < 10% | 74% |  |  |
| O=C(O)C1=C(C(=O)N2CCC(Cc3ccccc3)CC2)Oc2ccc(OCc3ccccc3)cc2O1 | 20% | 98% | 477 nM |  |
| CN(CCc1ccccc1)C(=O)C1=COc2ccc(OCc3ccccc3)cc2O1 | 0% | 40% | > 10000 nM |  |
| CC1(CCOCc2ccccc2)OC(=O)C2=C1Oc1cc(OCc3ccccc3)ccc1O2 (configuration not stated) | < 10% |  |  | inhibition [2]: 13% |
| CCCc1ccccc1OCCCCCCc1cccc(OCCCCC(=O)O)c1CCC(=O)O |  |  |  | Ki [4]: 1 nM |
| O=C(O)C1=C(C(=O)N2CCC(Cc3ccccc3)CC2)Oc2cc(OCc3ccccc3)ccc2O1 | 27% | 78% |  |  |
| COc1ccc2c(c1)c(CC(=O)O)c(C)n2C(=O)c1ccc(Cl)cc1 [INDOMETHACIN] |  |  |  | Activity [5]: 45%; Activity [6]: 31.6%; Activity [7]: 40.19%; Activity [8]: 2.06 mL; Activity [9]: 24.64%; Activity [10]: 1.65 mL; Activity [11]: 11.1%; Activity [12]: 45.3%; Activity [13]: 1.85 mL |
| CC(OC/C=C/c1ccccc1)C1=C(C(=O)O)Oc2ccc(OCc3ccccc3)cc2O1 (configuration not stated) | 20% | 92% |  |  |
| CCCc1c(OCCCOc2ccc(C(=O)NC)c(OC)c2CC2CC2)ccc2c1O[C@H](CCC(=O)O)CC2 |  |  |  | Ki [4]: 1.3 nM |
| CC(OCc1ccc2ccccc2c1)C1=C(C(=O)O)Oc2ccc(OCc3ccccc3)cc2O1 (configuration not stated) | 0% | 74% |  |  |
| O=C(O)C1=C(C(=O)N2CCC(Cc3ccccc3)CC2)Oc2cccc(OCc3ccccc3)c2O1 | 0% | 62% | 5610 nM |  |
| CN(CCc1ccccc1)C(=O)C1=C(C(=O)O)Oc2ccc(OCc3ccccc3)cc2O1 | 25% | 95% | 439 nM |  |
| CN(CCc1ccccc1)C(=O)C1=C(C(=O)O)Oc2cc(OCc3ccc4ccccc4c3)ccc2O1 | 18% | 97% | 710 nM |  |
| CN(CCc1ccccc1)C(=O)C1=C(C(=O)O)Oc2c(OCc3ccccc3)cccc2O1 | 4.8% | 94% | 2700 nM |  |
| CC(OC/C=C/c1ccccc1)C1=C(C(=O)O)Oc2cc(OCc3ccccc3)ccc2O1 (configuration not stated) | 0% | 82% |  |  |
| CC(OCc1ccccc1)C1=C(C(=O)O)Oc2ccc(OCc3ccccc3)cc2O1 (configuration not stated) | < 10% | 73% |  |  |
| O=C(O)C1=C(C(=O)N2CCC(c3ccccc3)CC2)Oc2cc(OCc3ccccc3)ccc2O1 | 12% |  |  | inhibition [2]: 33% |
| CN(CCc1ccccc1)C(=O)C1=C(C(=O)O)Oc2cc(OCc3ccccc3)ccc2O1 | 38% | 99% | 288 nM | Activity [14]: 8.3%; Activity [15]: 2.04 mL; Activity [16]: 39.7%; Activity [17]: 63.63%; Activity [18]: 16.2%; Activity [19]: 12.17%; Activity [20]: 39.05%; Activity [21]: 2.42 mL; Activity [22]: 1.66 mL |
